Results taken from publication PMC9925730, “Controlled sequential in situ self-assembly and disassembly of a fluorogenic cisplatin prodrug for cancer theranostics” (Nature Communications, 2023).
Several values for one entry are separate records, joined by “and”; a condition that tells them apart may be missing. Equal values may be shown once.

Experiments:
[1] = CMC of CyPt and stability of PtIVNPs under different pH conditions; type: physicochemical; conditions: for FL intensity at 710 nm: Supplementary Fig. 8 a
Experimental: Co n cen t rati o n (μM) Time (h) Time (h)
Supplementary Figure 8. Evaluation of the CMC and stability of PtIVNPs under different pH conditions. (a) Plots of the fluorescence intensity (λem = 710 nm) versus the concentration of CyPt in Tris buffer determine the CMC of CyPt, which was found to be ~0.3 μM according to the intersection of the two linear fit lines. (b, c) Monitoring of the hydrodynamic size of Pt IVNPs upon incubation under (b) pH = 5.0, and (c) pH = 7.4 (10 μM) for 0-24 h. Date denote mean ± s.d. (n = 3 independent experiments).
(also on this page, place not known: Na 3VO4 ( λem 850 800 Normalized FL intensity Tris Trypsin Caspase-3 Normalized FL intensity 200Diameter (nm) 10 Diameter (nm) 7.4(b) CMC=0.3 00 . . 51.0 Concentration FL intensity (1 X 105) 0 2 1.5 2.0 3.0 (c)(a))

ALP [2] = target: T1, ALP (Bos taurus, UniProt P19111); experiment: Sensitivity of P-CyPt towards ALP (detection limit); type: biochemical; conditions: for Normalized FL intensity at 710 nm (individual replicates) / Normalized FL intensity at 710 nm, mean: Supplementary Fig. 6b
T1 construct: Alkaline phosphatase from bovine; purchased Sigma-Aldrich; host or cells: bovine intestinal mucosa (tissue-derived)
T1 sequence (P19111 20-506 limits assumed): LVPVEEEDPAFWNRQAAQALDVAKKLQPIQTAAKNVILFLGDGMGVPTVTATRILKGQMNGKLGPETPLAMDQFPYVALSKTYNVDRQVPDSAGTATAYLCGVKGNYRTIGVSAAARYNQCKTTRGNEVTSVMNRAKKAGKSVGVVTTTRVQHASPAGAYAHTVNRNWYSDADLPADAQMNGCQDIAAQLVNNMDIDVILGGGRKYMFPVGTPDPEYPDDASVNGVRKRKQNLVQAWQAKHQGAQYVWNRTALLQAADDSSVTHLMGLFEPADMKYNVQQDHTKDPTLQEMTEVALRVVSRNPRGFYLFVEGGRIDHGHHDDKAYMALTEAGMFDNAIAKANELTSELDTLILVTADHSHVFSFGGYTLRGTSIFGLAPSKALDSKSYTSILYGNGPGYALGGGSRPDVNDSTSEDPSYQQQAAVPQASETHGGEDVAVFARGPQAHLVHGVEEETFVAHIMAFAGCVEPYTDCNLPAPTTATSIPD

ALP [3] = target: T1, ALP; experiment: NIR FL, PA and absorption signals of P-CyPt in solution in response to ALP; type: biochemical; conditions: P-CyPt 10 μM; for normalized Abs. at 700 nm (Fig. 2j) / normalized Abs. at 750 nm (Fig. 2j) / normalized FL intensity at 710 nm (Fig. 2k) / normalized PA intensity at 700 nm (Fig. 2l) / normalized PA intensity at 750 nm (Fig. 2l): ALP 100 U/L 37 °C
Experimental: To monitor the NIR FL and PA imaging signals of P-CyPt in response to ALP, P-CyPt (10 μM) in Tris buffer (1 mL) was incubated with ALP (100 U/L) at 37 °C for 0, 5, 10, 15, 20, and 30 min. To monitor the NIR FL and PA imaging signals of Pt^IVNPs in response to GSH, P-CyPt (10 μM) in Tris buffer (1 mL) was first incubated with ALP (100 U/L) at 37 °C for 30 min and then incubated with 10 mM GSH at 37 °C for another 10, 20, 30, 40, 50, and 60 min. The NIR FL spectra of these solutions at each time point were acquired on a HORIBA Jobin Yvon Fluoromax-4 fluorescence spectrometer, with excitation at 680 nm. For PA imaging, the incubation solutions at each time point were loaded into a fine bore polythene tube ([…], 1.27 mm OD). The tubes were then sealed and immersed in water. The PA images at both 700 and 750 nm were acquired on the Vevo 2100 LAZR system (FUJIFILM VisualSonics).

s.c. HeLa tumors [4] = experiment: PA imaging of s.c. HeLa tumors in vivo; set-up: species or system mice; conditions: i.v., 2 h post-injection
Experimental: (§1) (100 μM, in 200 μL saline). Whole body FL images of mice prior to (pre) and at 1 h, 2 h, 4 h, 8 h post injection of P-CyPt or […] acquired on the IVIS Lumina XR III imaging system, using a 660 nm excitation filter and a 750 ± 50 nm emission filter. Each experiment was conducted in three mice. The FL intensities were quantified by the region of interest (ROI) measurement using Living Image Software (4.5.2, PerkinElmer, MA, U.S.A). […] (500 μM, in 200 μL saline). The PA images of the s.c. HeLa tumors in mice prior to (pre), and at 1, 2, 4 h post injection were captured on the Vevo 2100 LAZR system (FUJIFILM VisualSonics), with excitation at 700 and 750 nm. The PA intensities were quantified by the equipped software.

s.c. HeLa tumors [5] = experiment: NIR FL imaging of s.c. HeLa tumors in vivo; set-up: species or system mice; conditions: i.v. 100 μM, 200 μL
Experimental: as §1

HeLa cells = experiment: NIR FL and PA bimodality imaging of cell pellets; type: cell-based, human; conditions: for normalized FL of cell pellets (Fig. 3c): 30 min
[6] = tested on: orthotopic HepG2/Luc liver tumors; experiment: NIR FL imaging of orthotopic HepG2/Luc liver tumors in vivo; set-up: species or system mice
Experimental: as §1

[7] = HeLa, P-CyPt 10 μM 30 min then blank medium 3 h (Group II vs I)

In the case of `CC1(C)C(/C=C/C2=C3Oc4cc(O)c(Cl)cc4C=C3CCC2)=[N+](CCCNC(=O)[C@@H](Cc2ccccc2)NC(=O)[C@@H](Cc2ccccc2)NC(=O)CCC(=O)[O][Pt]([NH2])([NH2])([OH])([Cl])[Cl])c2ccccc21` [CyPt], the “FL intensity at 710 nm” value ([1]; concentration of CyPt 0.05 μM) was 2780, the “FL intensity at 710 nm” value ([1]; concentration of CyPt 0.1 μM) was 5650 and the “FL intensity at 710 nm” value ([1]; concentration of CyPt 0.2 μM) was 11030. For the same compound, the “FL intensity at 710 nm” value ([1]; concentration of CyPt 0.3 μM) was 17800, the “FL intensity at 710 nm” value ([1]; concentration of CyPt 0.5 μM) was 19720 and the “FL intensity at 710 nm” value ([1]; concentration of CyPt 1 μM) was 24040. For the same compound, the “FL intensity at 710 nm” value ([1]; concentration of CyPt 2 μM) was 35120, the “FL intensity at 710 nm” value ([1]; concentration of CyPt 3 μM) was 46610 and the “critical micellar concentration (CMC)” value ([1]; Tris buffer, fluorescence at 710 nm) was “≈ 0.3 μM”.
In the case of `CC1(C)C(/C=C/C2=C3Oc4cc(OP(=O)(O)O)c(Cl)cc4C=C3CCC2)=[N+](CCCNC(=O)[C@@H](Cc2ccccc2)NC(=O)[C@@H](Cc2ccccc2)NC(=O)CCC(=O)[O][Pt]([NH2])([NH2])([OH])([Cl])[Cl])c2ccccc21` [P-CyPt], the “Normalized FL intensity at 710 nm (individual replicates)” value (ALP [2]; ALP concentration 0 U/L) was 0.8554 and 0.8726 and 0.8742, the “Normalized FL intensity at 710 nm, mean” value (ALP [2]; ALP concentration 0 U/L) was 0.867 and the “Normalized FL intensity at 710 nm (individual replicates)” value (ALP [2]; ALP concentration 0.5 U/L) was 0.9653 and 1.0053 and 1.0982. For the same compound, the “Normalized FL intensity at 710 nm, mean” value (ALP [2]; ALP concentration 0.5 U/L) was 1.023, the “Normalized FL intensity at 710 nm (individual replicates)” value (ALP [2]; ALP concentration 1 U/L) was 1.1743 and 1.1873 and 1.137 and the “Normalized FL intensity at 710 nm, mean” value (ALP [2]; ALP concentration 1 U/L) was 1.166. For the same compound, the “Normalized FL intensity at 710 nm (individual replicates)” value (ALP [2]; ALP concentration 2 U/L) was 1.4406 and 1.5171 and 1.5718, the “Normalized FL intensity at 710 nm, mean” value (ALP [2]; ALP concentration 2 U/L) was 1.510 and the “Normalized FL intensity at 710 nm (individual replicates)” value (ALP [2]; ALP concentration 5 U/L) was 2.2381 and 2.3195 and 2.3579. The “Normalized FL intensity at 710 nm, mean” value (ALP [2]; ALP concentration 5 U/L) was 2.305, the “Normalized FL intensity at 710 nm (individual replicates)” value (ALP [2]; ALP concentration 10 U/L) was 3.458 and 3.6281 and 3.6545 and the “Normalized FL intensity at 710 nm, mean” value (ALP [2]; ALP concentration 10 U/L) was 3.580. For the same compound, the “Normalized FL intensity at 710 nm (individual replicates)” value (ALP [2]; ALP concentration 15 U/L) was 4.5389 and 4.8786 and 4.9735, the “Normalized FL intensity at 710 nm, mean” value (ALP [2]; ALP concentration 15 U/L) was 4.797 and the “Normalized FL intensity at 710 nm (individual replicates)” value (ALP [2]; ALP concentration 20 U/L) was 5.7617 and 5.8661 and 6.3529. The “Normalized FL intensity at 710 nm, mean” value (ALP [2]; ALP concentration 20 U/L) was 5.994, the “detection limit for ALP” value (ALP [2]; P-CyPt 10 μM, 30 min, 3σ/k method) was ~ 0.098 U/L and the “normalized Abs. at 700 nm (Fig. 2j)” value (ALP [3]; 0 min) was 0.03754. The “normalized Abs. at 750 nm (Fig. 2j)” value (ALP [3]; 0 min) was 0.01756, the “normalized FL intensity at 710 nm (Fig. 2k)” value (ALP [3]; 0 min) was 0.979 and the “normalized PA intensity at 700 nm (Fig. 2l)” value (ALP [3]; 0 min) was 0.1461. The “normalized PA intensity at 750 nm (Fig. 2l)” value (ALP [3]; 0 min) was 0.1527, the “normalized Abs. at 700 nm (Fig. 2j)” value (ALP [3]; 5 min) was 0.6947 and the “normalized Abs. at 750 nm (Fig. 2j)” value (ALP [3]; 5 min) was 0.2821. For the same compound, the “normalized FL intensity at 710 nm (Fig. 2k)” value (ALP [3]; 5 min) was 5.873, the “normalized PA intensity at 700 nm (Fig. 2l)” value (ALP [3]; 5 min) was 0.4821 and the “normalized PA intensity at 750 nm (Fig. 2l)” value (ALP [3]; 5 min) was 0.3333. The “normalized Abs. at 700 nm (Fig. 2j)” value (ALP [3]; 10 min) was 0.8107, the “normalized Abs. at 750 nm (Fig. 2j)” value (ALP [3]; 10 min) was 0.4361 and the “normalized FL intensity at 710 nm (Fig. 2k)” value (ALP [3]; 10 min) was 6.541. The “normalized PA intensity at 700 nm (Fig. 2l)” value (ALP [3]; 10 min) was 0.5922, the “normalized PA intensity at 750 nm (Fig. 2l)” value (ALP [3]; 10 min) was 0.5187 and the “normalized Abs. at 700 nm (Fig. 2j)” value (ALP [3]; 15 min) was 0.8996. For the same compound, the “normalized Abs. at 750 nm (Fig. 2j)” value (ALP [3]; 15 min) was 0.6102, the “normalized FL intensity at 710 nm (Fig. 2k)” value (ALP [3]; 15 min) was 6.902 and the “normalized PA intensity at 700 nm (Fig. 2l)” value (ALP [3]; 15 min) was 0.7009. The “normalized PA intensity at 750 nm (Fig. 2l)” value (ALP [3]; 15 min) was 0.788, the “normalized Abs. at 700 nm (Fig. 2j)” value (ALP [3]; 20 min) was 0.9422 and the “normalized Abs. at 750 nm (Fig. 2j)” value (ALP [3]; 20 min) was 0.6514. For the same compound, the “normalized FL intensity at 710 nm (Fig. 2k)” value (ALP [3]; 20 min) was 7.672, the “normalized PA intensity at 700 nm (Fig. 2l)” value (ALP [3]; 20 min) was 0.8542 and the “normalized PA intensity at 750 nm (Fig. 2l)” value (ALP [3]; 20 min) was 0.9373. For the same compound, the “normalized Abs. at 700 nm (Fig. 2j)” value (ALP [3]; 30 min) was 0.996, the “normalized Abs. at 750 nm (Fig. 2j)” value (ALP [3]; 30 min) was 0.688 and the “normalized FL intensity at 710 nm (Fig. 2k)” value (ALP [3]; 30 min) was 7.9669. The “normalized PA intensity at 700 nm (Fig. 2l)” value (ALP [3]; 30 min) was 0.9524, the “normalized PA intensity at 750 nm (Fig. 2l)” value (ALP [3]; 30 min) was 1.0015 and the “NIR FL at 710 nm switched on” value (ALP [3]; ALP 100 U/L, after 30 min) was ~ 8 fold. The “increase of PA signal at 700 nm” value (ALP [3]; ALP 100 U/L, after 30 min) was “more than sixfold”, the “increase of PA signal at 750 nm” value (ALP [3]; ALP 100 U/L, after 30 min) was “more than sixfold” and the “tumor PA intensity at 700 nm higher than with Pt^IVNPs” value (s.c. HeLa tumors [4]) was ~3.4 fold. For the same compound, the “tumor PA intensity at 750 nm higher than with Pt^IVNPs” value (s.c. HeLa tumors [4]) was ~4.3 fold, the “quantified FL intensity of HeLa tumors (Fig. 4c)” value (s.c. HeLa tumors [5]; 1 h) was 1130000000 and the “quantified FL intensity of HeLa tumors (Fig. 4c)” value (s.c. HeLa tumors [5]; 2 h) was 1040000000. For the same compound, the “quantified FL intensity of HeLa tumors (Fig. 4c)” value (s.c. HeLa tumors [5]; 4 h) was 886000000, the “normalized FL of cell pellets (Fig. 3c)” value (HeLa cells; Group I: HeLa, P-CyPt 10 μM) was 0.6736 and the “normalized FL of cell pellets (Fig. 3c)” value (HeLa cells; Group II: HeLa, P-CyPt 10 μM, then blank medium 3 h) was 1. The “normalized FL of cell pellets (Fig. 3c)” value (HeLa cells; Group III: HeLa preincubated with Na3VO4 (10 mM, 20 min), then P-CyPt 10 μM) was 0.2415, the “decrease of PA signal at 750 nm in cell pellets” value (HeLa cells; [7]) was ~ 3.5 fold and the “increase of NIR FL in cell pellets” value (HeLa cells; [7]) was ~ 1.5 fold. The “quantified FL intensity of HepG2/Luc liver tumors (Fig. 5b)” value ([6]; 2 h) was 9.80E+08, the “quantified FL intensity of HepG2/Luc liver tumors (Fig. 5b)” value ([6]; 4 h) was 8.66E+08 and the “quantified FL intensity of HepG2/Luc liver tumors (Fig. 5b)” value ([6]; 8 h) was 3.61E+08. The “quantified FL intensity of HepG2/Luc liver tumors (Fig. 5b)” value ([6]; i.v. 100 μM, 200 μL, 1 h) was 1.05E+09.
